Test system: E. coli O157:H7
Assay: 12 day shelf-life study of inoculated spinach rinsed with LAB, chlorine or multi-hurdle intervention at 7° C.
Set-up: species or system Escherichia coli O157:H7
Details: 12 day shelf-life at 7° C., in words, P<0.0001

OCl [chlorine, sodium hypochlorite]
Reductions in pathogen populations compared to control populations: Significant reductions
